According to ChEMBL document CHEMBL1134712, “2-Aryl indole NK1 receptor antagonists: optimisation of indole substitution” (Bioorg Med Chem Lett, 2001):

Legend:
Substance-P receptor = Substance-P receptor (Homo sapiens, UniProt P25103); assay: Concentration required for displacement of [125I]-labeled substance P from cloned hNK1 receptor expressed in CHO cells; type: cell-based
Rattus norvegicus [1] = species on record: Rattus norvegicus; assay: Systemic AUC was determined by pharmacokinetic study conducted in portal vein cannulated rats; type: ADME, organism-based; settings: in vivo
[2] = Plasma clearance rate determined in rats; type: ADME, organism-based; settings: rat, read-out: Clearance rate
Gerbillinae [3] = assay: In vivo inhibitory dose determined in the gerbil foot-tapping assay after intravenous administration; type: functional; settings: read-out: ID50 (the source's name)
Rattus norvegicus [4] = species on record: Rattus norvegicus; assay: Hepatic portal AUC was determined by pharmacokinetic study conducted in portal vein cannulated rats; type: ADME, organism-based; settings: in vivo
[5] = Percent oral bioavailability determined in rats; type: ADME, organism-based; settings: rat, in vivo, read-out: Bioavailabiility
Gerbillinae [6] = assay: Percent inhibition of foot-tapping at 1 mg/kg, iv after pre-treatment time of 2 hr […]; type: functional
Gerbillinae [7] = assay: Percent inhibition of gerbil foot-tapping at 1 mg/kg, iv immediately following pre-treatment […]; type: functional
Gerbillinae [8] = assay: Percent inhibition of gerbil foot-tapping at 1 mg/kg, iv after pre-treatment time of 2 hr; type: functional

Chain of Substance-P receptor (P25103 whole entry): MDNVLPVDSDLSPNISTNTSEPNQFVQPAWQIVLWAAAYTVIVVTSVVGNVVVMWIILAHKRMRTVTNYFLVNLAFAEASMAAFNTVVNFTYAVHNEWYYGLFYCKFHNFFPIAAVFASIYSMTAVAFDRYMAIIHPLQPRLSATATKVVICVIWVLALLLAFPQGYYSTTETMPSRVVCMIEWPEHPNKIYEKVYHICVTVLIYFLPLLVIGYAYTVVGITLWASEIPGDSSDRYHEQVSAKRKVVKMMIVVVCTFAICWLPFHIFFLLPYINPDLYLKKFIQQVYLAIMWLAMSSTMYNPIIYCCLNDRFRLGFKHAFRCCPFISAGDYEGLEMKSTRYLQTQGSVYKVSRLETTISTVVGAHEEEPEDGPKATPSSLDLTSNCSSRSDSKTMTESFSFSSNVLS

Row | IC50 (Substance-P receptor) [nM] | Compound | other results
1 | 0.79 | Cn1c(-c2ccc(Cl)cc2)c(CCC(=O)N2CCC(O)(Cc3ccccc3)CC2)c2cc(-c3ccco3)ccc21 | 
2 | 6.3 | Cn1c(-c2ccc(Cl)cc2)c(CCC(=O)N2CCC(O)(Cc3ccccc3)CC2)c2cc(N3CCOCC3)ccc21 | 
3 | 4.9 | COc1ccccc1N1CCN(C(=O)CCc2c(-c3ccc(Cl)cc3)[nH]c3cc(Cl)ccc23)CC1 | 
4 | 87 | COc1ccccc1N1CCN(C(=O)CCc2c(-c3ccccc3)[nH]c3ccc(F)cc23)CC1 | 
5 | 0.78 | O=C(CCc1c(-c2ccc(Cl)cc2)nc2ccc(Cl)cn12)N1CCC(O)(Cc2ccccc2)CC1 | 
6 | 570 | COc1ccccc1N1CCN(C(=O)CCc2c(-c3ccc(Cl)cc3)[nH]c3cc(Cl)cc(Cl)c23)CC1 | 
7 | 14 | COc1ccccc1N1CCN(C(=O)CCc2c(-c3ccc(Cl)cc3)[nH]c3c(Cl)cc(Cl)cc23)CC1 | 
8 | 41 | Cn1c(-c2ccc(Cl)cc2)c(CCC(=O)N2CCC(O)(Cc3ccccc3)CC2)c2cnccc21 | 
9 | 5.6 | COc1ccccc1N1CCN(C(=O)CCc2c(-c3ccccc3)[nH]c3ccc(Cl)cc23)CC1 | 
10 | 1 | COc1ccccc1N1CCN(C(=O)CCc2c(-c3ccc(Br)cc3)[nH]c3ccc(C)cc23)CC1 | 
11 | 0.89 | COc1ccccc1N1CCN(C(=O)CCc2c(-c3ccc(Cl)cc3)[nH]c3ccc(Cl)cc23)CC1 | 
12 | 8.9 | COc1ccccc1N1CCN(C(=O)CCc2c(-c3ccc(Cl)cc3)[nH]c3ccc(OC(F)(F)F)cc23)CC1 | 
13 | 0.6 | COc1ccccc1N1CCN(C(=O)CCc2c(-c3ccc(Cl)cc3)[nH]c3ccc(C)cc23)CC1 | 
14 | 31 | COc1ccccc1N1CCN(C(=O)CCc2c(-c3ccc(Cl)cc3)[nH]c3ccccc23)CC1 | 
15 | 0.16 | Cn1c(-c2ccc(Cl)cc2)c(CCC(=O)N2CCC(O)(Cc3ccccc3)CC2)c2cc(Cl)ccc21 | AUC (Rattus norvegicus [1]): < 4 ng·h/mL; clearance [2]: 31 mL/min/kg; ED50 (Gerbillinae [3]): 0.3 mg/kg; AUC (Rattus norvegicus [4]): 24.7 ng·h/mL; bioavailability [5]: 2.3%
16 | 0.15 | Cn1c(-c2ccc(Cl)cc2)c(CCC(=O)N2CCC(O)(Cc3ccccc3)CC2)c2cc(Cl)cnc21 | inhibition in vivo at 1 mg/kg (Gerbillinae [6]): 10%; inhibition in vivo at 1 mg/kg (Gerbillinae [7]): 100%; AUC (Rattus norvegicus [1]): 8 ng·h/mL; AUC (Rattus norvegicus [4]): 96.8 ng·h/mL
17 | 0.22 | Cn1c(-c2ccc(Cl)cc2)c(CCC(=O)N2CCC(O)(Cc3ccccc3)CC2)c2cc(Cl)ncc21 | 
18 | 950 | COc1ccccc1N1CCN(C(=O)CCc2c(-c3ccc(Cl)cc3)[nH]c3cccc(Cl)c23)CC1 | 
19 | 0.22 | Cn1c(-c2ccc(Cl)cc2)c(CCC(=O)N2CCC(O)(Cc3ccccc3)CC2)c2cc(Br)ccc21 | 
20 | 2.6 | Cn1c(-c2ccc(Cl)cc2)c(CCC(=O)N2CCC(O)(Cc3ccccc3)CC2)c2nc(Cl)ccc21 | 
21 | 2.3 | Cn1c(-c2ccc(Cl)cc2)c(CCC(=O)N2CCC(O)(Cc3ccccc3)CC2)c2cc(-n3cccc3)ccc21 | 
22 | 3.3 | Cn1c(-c2ccc(Cl)cc2)c(CCC(=O)N2CCC(O)(Cc3ccccc3)CC2)c2cc(N3CCCCC3)ccc21 | 
23 | 0.27 | C=Cc1ccc2c(c1)c(CCC(=O)N1CCC(O)(Cc3ccccc3)CC1)c(-c1ccc(Cl)cc1)n2C | 
24 | 0.19 | CC(=O)c1ccc2c(c1)c(CCC(=O)N1CCC(O)(Cc3ccccc3)CC1)c(-c1ccc(Cl)cc1)n2C | inhibition in vivo at 1 mg/kg (Gerbillinae [8]): 14%
25 | 1.7 | Cn1c(-c2ccc(Cl)cc2)c(CCC(=O)N2CCC(O)(Cc3ccccc3)CC2)c2cc(-c3ccccn3)ccc21 | 
26 | 5.5 | Cn1c(-c2ccc(Cl)cc2)c(CCC(=O)N2CCC(O)(Cc3ccccc3)CC2)c2cc(-c3ccncc3)ccc21 | 
27 | 5.5 | Cn1c(-c2ccc(Cl)cc2)c(CCC(=O)N2CCC(O)(Cc3ccccc3)CC2)c2cc(-c3cccnc3)ccc21 | 
